# Tests used:
# iCELL Cardiomyocytes = experiment: Cardiac safety: caspase 3 and 7 activation (Caspase-Glo 3/7) in iCELL Cardiomyocytes; type: cell-based
# Text: The effect of various compounds of the invention and a reference compound AZD5991 on cardiac safety was investigated by the evaluation of caspase 3 and 7 activation using Caspase-Glo 3/7 Assay (Promega; G8092) in iCELL™ Cardiomyocytes from FUJIFILM Cellular Dynamics (Catalog number: 11713). In the Caspase-Glo® 3/7 Assay, the luminescence (measured as Relative Luciferase Units, RLU) is proportional to the amount of caspase activity present in each sample.
# The assay is initiated by thawing and seeding iCell® Cardiomyocytes as specified in the User Guide. After 48 hours, the cells are washed to remove unattached cells and debris and immediately treated with compounds or DMSO diluted in the maintenance medium (FCDI; cat: M1003). Compound concentrations used in this assay: 7 points 1/3 dilution curve starting at 100 uM. After 24 hours of incubation with compounds, caspase activity is measured by the addition of the Caspase-Glo® 3/7 Reagent followed by the luminescence measurement.
# The analysis of the results is performed by calculation of the fold change in caspase 3/7 activity at a given compound concentration. Fold change is calculated with the formula: […]
# where: • RLU Xi is the Relative Luciferase Units of sample I; • RLU BG is the Background Relative Luciferase Units; • RLU C is the Relative Luciferase Units of Control (DMSO).
# The experiments were performed in technical duplicates.
# MV-4-11 cells = experiment: Induction of apoptosis in cancer cells, flow cytometry (Annexin V/PI); type: cell-based; details: MV-4-11 cells, 1, 3, 10, 30 and 100 nM, 24 hours
# Protocol: The effect of compound 204 of the invention MV-4-11 cells was investigated using the following protocol.
# MV-4-11 cells were seeded on 24-well plates (1 ml) in growth medium containing 1% FBS. Immediately after seeding, compounds in appropriate concentrations were added directly to the cell culture medium. After 24 hours incubation, cells were washed twice with cold DPBS and the staining was performed using the FITC Annexin V Apoptosis Detection Kit I (BD Pharmingen; 556547). Samples were then analyzed by flow cytometry (LSR Fortessa X-20; BD Biosciences) within 1 hr. Results were evaluated using FlowJo (V10) software.
# FIG. 6 presents the induction of apoptosis in MV-4-11 cells treated with 204 at 1, 3, 10, 30, and 100 nM concentration for 24 hours, as indicated.
structure (smiles),measurement,setting,value
"Cc1nn(C)c(C)c1-c1c(Cl)ccc2c(CCCOc3cccc4ccccc34)c(C(=O)O)n(CCN3CCN(C(=O)COc4cccc5c4C(=O)N(C4CCC(=O)NC4=O)C5=O)CC3)c12 (stereo not drawn) [Compound 204, 6-chloro-1-(2-(4-(2-((2-(2,6-dioxopiperidin-3-yl)-1,3-dioxoisoindolin-4-yl)oxy)acetyl)piperazin-1-yl)ethyl)-3-(3-(naphthalen-1-yloxy)propyl)-7-(1,3,5-trimethyl-1H-pyrazol-4-yl)-1H-indole-2-carboxylic acid]",Fold change at 1.2 uM (caspase 3/7 activity in cardiomyocytes),"iCELL Cardiomyocytes; 1.2 uM, 24 hours incubation, vs DMSO",≤1.5 ± 0.2
same,activity in caspase activity assay in cardiomyocytes,iCELL Cardiomyocytes; as opposed to reference compound AZD5991,little to no activity
same,population of late apoptotic/cell death (Annexin+/PI+) cells,MV-4-11 cells,concentration dependent increase

# — patent US20240294499A1, “TARGETED PROTEIN DEGRADATION USING BIFUNCTIONAL COMPOUNDS THAT BIND UBIQUITIN LIGASE AND TARGET MCL-1 PROTEIN” (Captor Therapeutics S.A., priority 2021, published 2024)
